Where two headings read alike, the source gives them in different places.
What was measured:
[1] = system: NRF2-ARE pathway in the CHO 4× ARE-TK cell line; test: ARE reporter assay in CHO 4×ARE-TK-GFP cell line (GFP induction, EthD1 toxicity)
Procedure: Chinese Hamster Ovary (CHO), NSC34 mouse motor neuronal cells, C6 (rat) and 1321N1 (human) astrocytic lines were routinely maintained in DMEM supplemented with 10% FBS and penicillin/streptomycin. […] These plasmids were transfected into CHO, C6 and 1321N1 cell lines using Lipofectamine 2000 (Invitrogen) and following 10-14 days of selection in 0.5 mg/ml G418 they were expanded and selected for basal eGFP expression using fluorescence activated cell sorting (BD, FACSAria) with two sequential cell sorts for each cell line. These mixed populations of stable transfectants with basal eGFP expression were used in subsequent assays and designated 4×ARE-TK-GFP for the ARE containing line and TK-GFP for the control cell line. […]
Confluent cultures of 4×ARE-TK-GFP CHO or TK-GFP CHO expressing cells in 96 or 384-well tissue-culture plates were treated with drug (0.01-100 µM in triplicate) or vehicle (0.1-1% DMSO) in FCS-free DMEM in triplicate for 24 hours. The media was removed and replaced with the same volume of PBS containing 0.3 μM EthD1. […] Non-linear regression was used to fit a sigmoidal dose-response curve on a semi-Log plot to calculate the EC50 using GraphPad Prism (GraphPad Software). The reporter assay was conducted in a similar fashion in C6 and 1321N1 astrocyte cell lines stably transfected with the 4×ARE-TK-GFP and TK-GFP constructs except that Eth D1 was added directly in the media and read prior to washing the cells once and reading the […] signal. […]
The compounds were applied in triplicate to confluent cells in 96 well plates in serum free medium for 24 hours and the induction of GFP measured in a fluorescence plate reader. […]

[2] = system: motor neurones (MN) in primary mouse astrocyte/MN co-cultures; test: Menadione stress in primary mouse astrocyte/motor neurone co-cultures; type: cell-based
Procedure: Mouse glial cultures were established from C57BI/6 cortices from 1-2 day old pups. Cortices were dissected out and cells dissociated by trituration following incubation in DNasel, collagenase and trypsin. The incubation and trituration steps were repeated to ensure complete dissociation of cells. Cells were plated at 45,000 cells/cm^2 in DMEM containing 10% FBS, 100 U/ml penicillin, and 100 μg/ml streptomycin. After 24 hours, cultures were washed in PBS and grown for 2-3 weeks until confluent, changing the medium once a week. Confluent glial cultures were enriched for astrocytes by shaking and mild trypsinisation. Enriched astrocytes were grown to confluency and plated onto coverslips coated with poly-D-ornithine (1.5 mg/ml; Sigma, Poole, UK) at 40,000 cells/cm^2, and grown for 1 week. […]
When co-cultures were established for 2 weeks, neuroprotection assays were performed by 24 hrs exposure to drug or vehicle followed by a 6 hour 10 micromolar menadione oxidative stress or glutamate. […] Total MNs were counted by fluorescent microscopy in a 1.5 cm^2 area per coverslip. […] Both vehicle and drug treatments were counted before and after stress treatment, and results were statistically analysed by 2 way anova using Bonferroni post tests.
The co-cultures were then challenged for 6 hours with 10 μM menadione to induce oxidative stress and motor neurones stained and counted. […]

[3] = system: 1321N1 (human) astrocytic line; test: 1321N1 oxidative stress assay (serum withdrawal, DCF)
Procedure: (§2) A simple oxidative stress assay was used to determine whether preconditioning with NRF2-ARE inducing drugs could protect against a subsequent oxidative stress insult (serum withdrawal). The NSC34, C6 and 1321N1 cells were plated in 96 well tissue culture plates to achieve 30% confluency. […] Media was then replaced with serum free, phenol free media for 5 hrs. […] Cell survival assay was then performed on the cells as protection is measured as % reduction in DCF signal, therefore data points were excluded where a decrease in cell number was measured.
(§3) Briefly methylthiazolyldiphenyl-tetrazolium bromide (MTT) was added to the cells and a blank well to a final concentration 0.5 mg/ml and incubated at 37° C. for 1-3 hrs depending on the cell line used.

[4] = system: Haem oxygenase 1 and NQO1 gene expression in C6 cells; test: Multiplex/quantitative RT-PCR for NRF2 regulated genes in C6 cells; type: cell-based, rat
Procedure: (§1) Quantitative RT-PCR. (Q-PCR) was performed using 25 ng of cDNA, 1× SYBR Green PCR Master Mix (Stratagene) and optimised concentrations of forward and reverse primers (Table 1), in a total volume of 20 μl and in triplicate for each sample. Following denaturation at 95° C. for 10 min, products were amplified by 40 cycles of 95° C. for 15 s and 60° C. for 1 min, on an MX3000P Real Time PCR System (Stratagene). To ensure amplification of a single product the dissociation curve was produced for each amplification. The relative levels of the genes of interest in the samples was determined by normalizing the level of expression to that of gapdh in each of the samples and by using the ddCt calculation (SYBR Green PCR mix and RT-PCR protocol, Applied Biosystems). Overall relative concentrations of the genes of interest were calculated following drug treatment by normalising the data to the cells grown in the vehicle (DMSO).

[5] = system: NSC34 mouse motor neuronal cells; test: NSC34 oxidative stress assay (serum withdrawal, DCF); conditions: NSC34
Procedure: as §2, §3

[6] = system: C6 (rat) astrocytic line; test: C6 oxidative stress assay (serum withdrawal, DCF)
Procedure: as §2, §3

[7] = system: NQO1 and HO1 transcripts in primary mouse astrocytes from G93A mutant SOD1 transgenic mice; test: Quantitative RT-PCR of NQO1 and HOX1 in G93A mutant SOD1 primary mouse astrocytes; type: cell-based
Procedure: as §1

[8] = system: motor neuronal cell line expressing mutant (G93A) human SOD1; conditions: prior art; cited from earlier work
[9] = system: G93A mouse model of ALS; conditions: higher doses, once a day, orally from 60 days of age; prior art; cited from earlier work
[10] = system: HO-1 and NQO-1 transcripts; test: In vivo pharmacodynamics, QRT-PCR for HO-1 and NQO-1 in mice; conditions: mouse
[11] = mouse, in vivo, iv
[12] = system: NRF2-ARE pathway in C6 cells; test: ARE reporter assay in C6 astrocyte cell line; type: cell-based, rat
Excerpt: NRF2-ARE Inducing activity of the best hit compounds in neuronal and astrocytic cell lines was investigated. In order to determine whether the differences in protection in astrocytic and motor neuronal cell lines was due to differences in the degree of activation of the NRF2-ARE pathway in these cell types, the NRF2-ARE reporter construct was stably expressed in both the astrocytic (C6) and motor neuronal (NSC34) cell lines. The 17 best hit molecules were then screened in each cell line. We also screened the S [+] enantiomer of apomorphine as it can exist as either an R[−] or S[+] enantiomer. The […] enantiomer has dopamine agonist activity whereas the S[+] enantiomer has lost this activity and so we wanted to determine whether it retains NRF2-ARE inducing activity. In general activation of the NRF2-ARE pathway in the C6 cells was similar to that seen in the CHO cell line. […].

Question: For `C=C1CC[C@@H]2[C@](C)(CO)[C@H](O)CC[C@@]2(C)[C@@H]1C/C=C1/C(=O)OC[C@H]1O` [Andrographolide], which “Lowest dose with toxicity” value ([1]; Chinese hamster, 24 h) is on record?
Answer: 100 µM

Question: What about the EC50 ([1]; Cricetulus griseus, 24 h, read-out: Average EC50, CHO 4×ARE-TK-GFP, GFP induction, 24 h) of the same compound?
Answer: 740 nM

Question: What about the maximal fold induction ([1]; Cricetulus griseus, 24 h, read-out: Average fold GFP induction at maximal response) of the same compound?
Answer: 3.61

Question: What about the EC50 ([1]; Cricetulus griseus, CHO ARE reporter) of the same compound?
Answer: 740 nM

Question: What about the “reduction in motor neurone number after menadione” value ([2]; 24 h pre-treatment, 6 hours 10 μM menadione, DMSO control approximately 25% reduction) of the same compound?
Answer: not seen

Question: What about the “Lowest dose with toxicity” value ([3]; 1321N1) of the same compound?
Answer: 10 µM

Question: What about the IC50 ([3]; 1321N1, 24 h pre-treatment, serum withdrawal, DCF) of the same compound?
Answer: 501 nM

Question: What about the “Haem oxygenase 1 and NQO1 gene expression” value ([4]; C6 cells, 24 h, EC50 and EC90 concentrations) of the same compound?
Answer: statistically significant changes in gene expression

Question: And the “Lowest dose with toxicity” value [5]?
Answer: 10 µM

Question: What about the “Lowest dose with toxicity” value ([6]; C6) of the same compound?
Answer: 10 µM

Question: What about the IC50 ([6]; C6, 24 h pre-treatment, serum withdrawal, DCF) of the same compound?
Answer: 192 nM

Question: And the “transcripts for NQO1 and HO1” value ([7]; G93A mutant SOD1 astrocytes, 24 hour pre-treatment, EC90 concentrations)?
Answer: significant increase

Question: With `O=C(O[C@@H]1Cc2c(O)cc(O)cc2O[C@@H]1c1cc(O)c(O)c(O)c1)c1cc(O)c(O)c(O)c1` [EGCG, catechin-(−) epigallocatechin-3-gallate, reference compound] as the compound, how does the “fluorescence in the control TK-GFP cell line” value ([1]; control TK-GFP CHO cell line) read?
Answer: No increase in fluorescence

Question: What about the “concentration of peak ARE activation (GFP expression)” value ([1]; narrow window, 24 h, serum free medium) of the same compound?
Answer: 100 µM

Question: And the “concentration giving partial protection from H2O2 induced cell death” value [8]?
Answer: greater than 20 μM

Question: What about the survival [9] of the same compound?
Answer: significant extension in survival

Question: For `CN1CCc2cccc3c2[C@H]1Cc1ccc(O)c(O)c1-3.Cl` (single isomer, unassigned) [S[+] apomorphine, S [+] apomorphine], which “induction of HO-1 and NQO-1 transcripts” value [10] is on record?
Answer: significant induction

Question: What about the “levels of the compound in plasma, brain and cerebral spinal fluid” value [11] of the same compound?
Answer: detected

Question: What about the “reduction in motor neurone number after menadione” value [2] of the same compound?
Answer: not seen

Question: What about the “NRF2-ARE activation in C6 reporter cell line” value [12] of the same compound?
Answer: equally potent

Question: And the “Haem oxygenase 1 and NQO1 gene expression” value [4]?
Answer: statistically significant changes in gene expression

Question: What about the “transcripts for NQO1 and HO1” value [7] of the same compound?
Answer: significant increase

— patent US20110251230A1, “THERAPEUTICS FOR NEUROLOGICAL DISORDERS” (UNIVERSITY OF SHEFFIELD, priority 2008, published 2011)
